# Data taken from US20260306525A1, “COMBINATION THERAPY GLUCOCORTICOIDS AND GINSENOSIDE” (FYTAGORAS B.V., priority 2023, published 2026).
# What was measured:
# neutrophils = test: zebrafish tail fin wounding assay, neutrophil migration to wounded site; format: in vivo, zebrafish (Danio rerio); settings: 10 μM dexamethasone
# Method: Zebrafish (Danio rerio) were maintained and handled according to the guidelines from the Zebrafish Model Organism Database (http://zfin.org) and in compliance with the directives of the local animal welfare committee of Leiden University. Zebrafish were exposed to a 14 h light and 10 h dark cycle to maintain circadian rhythmicity. Fertilization was performed by natural spawning at the beginning of the light period. […] The following zebrafish lines were used in this study: the double transgenic line Tg(mpx:GFP^i114/mpeg1:mCherry^umsF001), in which neutrophils and macrophages are fluorescently labeled (green and red, respectively), and the Tg(9xGCRE-HSV.UI23:EGFP)^ia20 reporter line, in which the gene encoding enhanced green fluorescent protein (EGFP) is driven by a GRE-containing promoter.
# For the tail fin wounding experiments, 20 larvae at 2 or 3 days post-fertilization (dpf) were utilized for each experimental group. For wounding, larvae were anesthetized in egg water containing 0.02% buffered aminobenzoic acid ethyl ester (tricaine; Sigma-Aldrich). Larvae were placed on Petri dishes coated with 2% agarose under a Leica M165C stereomicroscope (Leica Microsystems, Wetzlar, Germany), and the tails were partly amputated using a 1-mm sapphire blade (World Precision Instruments, Sarasota, FL, USA). For quantification of leukocyte migration, larvae were fixed overnight in 4% paraformaldehyde (PFA) at 4° C. The next day, fixed larvae were washed with Phosphate Buffered Saline (PBS) containing 0.1% Tween 20, and stored at 4° C. until imaging.
# The macrophages were detected based on their red (mCherry) fluorescence, and neutrophils based on their green (EGFP) fluorescence. To quantify the number of macrophages and neutrophils recruited to the wounded area, the cells in a defined area of the tail were determined by blinded manual counting.
# Zebrafish (Danio rerio) were maintained and handled according to the guidelines from the Zebrafish Model Organism Database (http://zfin.org) and in compliance with the directives of the local animal welfare committee of Leiden University. Zebrafish were exposed to a 14 h light and 10 h dark cycle to maintain circadian rhythmicity. Fertilization was performed by natural spawning at the beginning of the light period. […] The following zebrafish lines were used in this study: AB/TL wild type, the transgenic lines Tg(mpx:GFP^i114/mpeg1:mCherry^umsF001)[14, 15], and Tg(9xGCRE-HSV.UI23:EGFPia^20)[16], and the mutant lines grs357[20].
# For the tail fin wounding experiments, 2- or 3-days post-fertilization (dpf) larvae were anesthetized in egg water containing 0.02% buffered aminobenzoic acid ethyl ester (tricaine; Sigma-Aldrich). Larvae were placed in Petri dishes coated with 2% agarose under a Leica M165C stereomicroscope (Leica Microsystems, Wetzlar, Germany), and the tails were partly amputated using a 1-mm sapphire blade (World Precision Instruments, Sarasota, FL, USA).
# In experiments in which the leukocyte migration was used as a readout, larvae were subjected to treatment with chemicals as indicated, starting at 2 h before the amputation (pretreatment), and treatment was continued for 4 h after the tail fin amputation (20 larvae per group, unless indicated otherwise). In some experiments, a 24 h treatment with MZ31 (10 μM) was started at 2 dpf, and these treatments were continued during the pretreatment and treatment with the other chemicals. At 4 h after amputation, the larvae were fixed in 4% paraformaldehyde (PFA) overnight at 4° C. The next day, fixed larvae were washed with Phosphate Buffered Saline (PBS) containing 0.1% Tween 20 and stored at 4° C. until imaging. […] The macrophages were detected based on red (mCherry) fluorescence and neutrophils on their green (EGFP) fluorescence. To quantify the number of macrophages and neutrophils recruited to the wounded area, the cells in a defined area of the tail were determined by blinded manual counting. […]
# [1] = size exclusion chromatography of micelles (Sephadex G50) with HPLC; format: physicochemical
# Method: The size and content of the micelles were determined by means of size exclusion chromatography. 1 mL of aqueous ginsenoside/dexamethasone solution was loaded on a Sephadex G50 size exclusion column (size 25×1 cm) and eluted under gravity with water. Blue dextran (MW=2.000.000 Da) and erythrosine (880 Da) were used as molecular weight markers. Fractions of 2.0 mL were collected. The fractions were dried and dissolved in 70% methanol and the ginsenoside content was analyzed by means of HPLC. HPLC conditions were: • HPLC equipment: HPLC/DAD Aligent 1200 series, a quaternary pump connected to a DAD and autosampler. • Stationary phase: Kinetex 2.6 μm, C18 100 Å, 100×4.6 mm-Phenomenex, USA • Mobile phase: • A: 0.03% o-phosphoric acid (H3PO4) in Ultrapure H2O • B: 0.03% o-phosphoric acid (H3PO4) in Acetonitrile (LiChrosolv, Millipore-Merck, Darmstadt, Germany; quality far UV) • Gradient:
# • Conditions • Flow: 0.8 ml/min • Injection volume: 20 μL • Column temperature: 35° C. • Detection wavelength: 203 and 241 nm
# [2] = rule of thumb, literature table; cited from earlier work
# gr = test: Gr transactivation activity in Tg(9xGCRE-HSV.UI23:EGFP)ia20 reporter larvae; format: in vivo, zebrafish (Danio rerio); settings: 24 h from 2 dpf; 10 μM GC, 50 μM Rg1 or combination
# Method: (§1) To investigate the Gr transactivation activity in zebrafish larvae, the Tg(9xGCRE-HSV.UI23:EGFP)^ia20 reporter line was used, which expresses enhanced green fluorescent protein (EGFP) under the control of a promoter containing an array of nine GREs. […] The integrated intensity of the EGFP signal in the larvae was determined using ImageJ software.
# as §1, with “Tg(9xGCRE-HSV.UI23:EGFP^ia20)” for “Tg(9xGCRE-HSV.UI23:EGFP)^ia20”
# zebrafish larvae = test: tail fin regeneration assay; settings: 0-5 dpf; 10 μM beclomethasone or dexamethasone, 50 μM Rg1 or combinations; amputation at 2 dpf
smiles,measurement,setting,value
"C[C@@H]1C[C@H]2[C@@H]3CCC4=CC(=O)C=C[C@]4(C)[C@@]3(F)[C@@H](O)C[C@]2(C)[C@@]1(O)C(=O)CO [dexamethasone, reference compound]",neutrophil migration to the wounded site,neutrophils,did not affect neutrophil migration
same,detection of free dexamethasone in fractions after 55 mL,[1],could not be detected in these fractions
same,co-elution of dexamethasone with micelles / encapsulation,[1]; Sephadex G50 fractions,co-eluted with the Re and Rg1 containing micelles
same,dose equivalent to a 5 mg prednisone dose,[2],about 0.75 mg
same,relative EGFP intensity (Gr transactivation),gr,significantly increased the relative EGFP intensity
same,regeneration of amputated tail fin (length of regenerated tissue at 5 dpf),zebrafish larvae,dexamethasone-induced inhibition of the regenerative process
